Reference: PMC5218480 (PLoS ONE, 2017)

Tested on: MV-4-11 cells
Assay: Gene expression microarray analysis (Affymetrix PrimeView) and GSEA
Format: cell-based, human
Parameters: RFU PODN (11730768_x_at) / Fold change /veh PODN (11730768_x_at) / RFU LINC00158 (11744669_a_at) / Fold change /veh LINC00158 (11744669_a_at) / RFU DUSP10 (11751237_a_at) / Fold change /veh DUSP10 (11751237_a_at) / RFU ID3 (11757404_x_at) / Fold change /veh ID3 (11757404_x_at) / RFU PLEKHG5 (11737974_s_at) / Fold change /veh PLEKHG5 (11737974_s_at) / RFU LRRC4B (11730491_at) / Fold change /veh LRRC4B (11730491_at) / RFU GIMAP4 (11747438_a_at) / Fold change /veh GIMAP4 (11747438_a_at) / RFU KRT8 (11758183_x_at) / Fold change /veh KRT8 (11758183_x_at) / RFU CNN1 (11734310_a_at) / Fold change /veh CNN1 (11734310_a_at) / RFU VPS37D (11726825_at) / Fold change /veh VPS37D (11726825_at) / RFU C10orf10 (11716522_x_at) / Fold change /veh C10orf10 (11716522_x_at) / RFU KIR2DL2 /// KIR2DL4 /// KIR2DL5A /// KIR2DL5B /// KIR2DS1 /// KIR2DS2 /// KIR2DS3 /// KIR2DS4 /// KIR3DL3 /// KIR3DL3 /// KIR3DS1 (11738374_at) / Fold change /veh KIR2DL2 /// KIR2DL4 /// KIR2DL5A /// KIR2DL5B /// KIR2DS1 /// KIR2DS2 /// KIR2DS3 /// KIR2DS4 /// KIR3DL3 /// KIR3DL3 /// KIR3DS1 (11738374_at) / RFU C1QL1 (11718748_at) / Fold change /veh C1QL1 (11718748_at) / RFU TMPRSS4 (11747572_a_at) / Fold change /veh TMPRSS4 (11747572_a_at) / RFU HAMP (11756126_x_at) / Fold change /veh HAMP (11756126_x_at) / RFU RNFT2 (11725882_a_at) / Fold change /veh RNFT2 (11725882_a_at) / RFU NR4A2 (11747474_a_at) / Fold change /veh NR4A2 (11747474_a_at) / RFU ABCC12 (11746883_a_at) / Fold change /veh ABCC12 (11746883_a_at) / RFU TMEM136 (11760407_x_at) / Fold change /veh TMEM136 (11760407_x_at) / RFU CLDN22 /// WWC2 (11732394_at) / Fold change /veh CLDN22 /// WWC2 (11732394_at) / RFU HLA-DPB1 (11760878_x_at) / Fold change /veh HLA-DPB1 (11760878_x_at) / RFU SPINT1 (11716480_a_at) / Fold change /veh SPINT1 (11716480_a_at) / RFU GAP43 (11754022_s_at) / Fold change /veh GAP43 (11754022_s_at) / RFU A4GNT (11735810_at) / Fold change /veh A4GNT (11735810_at) / RFU PRB3 (11715151_x_at) / Fold change /veh PRB3 (11715151_x_at) / RFU TUBB4B (11761932_at) / Fold change /veh TUBB4B (11761932_at) / RFU CAPN14 (11732068_a_at) / Fold change /veh CAPN14 (11732068_a_at) / RFU TMCC2 (11721928_a_at) / Fold change /veh TMCC2 (11721928_a_at) / RFU IRGQ (11745062_a_at) / Fold change /veh IRGQ (11745062_a_at) / RFU FAM174B (11720279_a_at) / Fold change /veh FAM174B (11720279_a_at) / RFU TMPRSS4 (11748680_a_at) / Fold change /veh TMPRSS4 (11748680_a_at) / RFU FAM212B (11763350_a_at) / Fold change /veh FAM212B (11763350_a_at) / RFU PLEKHG5 (11743358_a_at) / Fold change /veh PLEKHG5 (11743358_a_at) / RFU ZSCAN30 (11745921_a_at) / Fold change /veh ZSCAN30 (11745921_a_at) / RFU CMKLR1 (11741424_a_at) / Fold change /veh CMKLR1 (11741424_a_at) / RFU LOC101060620 /// MAPK8IP1 (11723275_at) / Fold change /veh LOC101060620 /// MAPK8IP1 (11723275_at) / RFU SPTSSB (11747773_x_at) / Fold change /veh SPTSSB (11747773_x_at) / RFU PRSS12 (11739890_at) / Fold change /veh PRSS12 (11739890_at) / RFU BIN1 (11741810_x_at) / Fold change /veh BIN1 (11741810_x_at) / RFU WNT11 (11732464_a_at) / Fold change /veh WNT11 (11732464_a_at) / RFU C10orf10 (11716521_a_at) / Fold change /veh C10orf10 (11716521_a_at) / RFU C5orf56 (11738089_at) / Fold change /veh C5orf56 (11738089_at) / RFU CYB561 (11721691_x_at) / Fold change /veh CYB561 (11721691_x_at) / RFU ANKRD19P (11752326_a_at) / Fold change /veh ANKRD19P (11752326_a_at) / RFU OR2T12 /// OR2T33 /// OR2T8 (11738714_s_at) / Fold change /veh OR2T12 /// OR2T33 /// OR2T8 (11738714_s_at) / RFU VCAN (11748164_a_at) / Fold change /veh VCAN (11748164_a_at) / RFU JSRP1 (11732532_at) / Fold change /veh JSRP1 (11732532_at) / RFU KRTAP10-11 (11738290_x_at) / Fold change /veh KRTAP10-11 (11738290_x_at) / RFU MYO3A (11730013_a_at) / Fold change /veh MYO3A (11730013_a_at) / RFU EBF3 (11725865_a_at) / Fold change /veh EBF3 (11725865_a_at) / RFU CAMK2N1 (11719241_x_at) / Fold change /veh CAMK2N1 (11719241_x_at) / RFU C5orf56 (11738088_a_at) / Fold change /veh C5orf56 (11738088_a_at) / RFU OLFML3 (11715873_a_at) / Fold change /veh OLFML3 (11715873_a_at) / RFU LOC100653217 /// NTM (11731650_a_at) / Fold change /veh LOC100653217 /// NTM (11731650_a_at) / RFU MAPK11 (11762145_a_at) / Fold change /veh MAPK11 (11762145_a_at) / RFU FIZ1 (11724087_x_at) / Fold change /veh FIZ1 (11724087_x_at) / RFU OASL (11726364_x_at) / Fold change /veh OASL (11726364_x_at) / RFU SOX15 (11748057_x_at) / Fold change /veh SOX15 (11748057_x_at) / RFU CD79A (11719716_a_at) / Fold change /veh CD79A (11719716_a_at) / RFU HIST1H1D (11736915_at) / Fold change /veh HIST1H1D (11736915_at) / RFU CASKIN2 (11723855_a_at) / Fold change /veh CASKIN2 (11723855_a_at) / RFU LOC730098 (11760151_x_at) / Fold change /veh LOC730098 (11760151_x_at) / RFU OR4N2 (11742367_at) / Fold change /veh OR4N2 (11742367_at) / RFU PRRT2 (11749266_a_at) / Fold change /veh PRRT2 (11749266_a_at) / RFU SNX32 (11753110_a_at) / Fold change /veh SNX32 (11753110_a_at) / RFU CDHR5 (11726645_a_at) / Fold change /veh CDHR5 (11726645_a_at) / RFU RCAN1 (11760418_a_at) / Fold change /veh RCAN1 (11760418_a_at) / RFU FAM167A (11723789_a_at) / Fold change /veh FAM167A (11723789_a_at) / RFU FAM26E (11764081_at) / Fold change /veh FAM26E (11764081_at) / RFU ISYNA1 (11749810_s_at) / Fold change /veh ISYNA1 (11749810_s_at) / RFU ACY1 (11761880_at) / Fold change /veh ACY1 (11761880_at) / RFU 11764098_at / Fold change /veh 11764098_at / RFU SAMD14 (11745864_x_at) / Fold change /veh SAMD14 (11745864_x_at) / RFU NPB (11741838_a_at) / Fold change /veh NPB (11741838_a_at) / RFU TMPRSS6 (11731388_a_at) / Fold change /veh TMPRSS6 (11731388_a_at) / RFU KRTAP10-2 (11738614_at) / Fold change /veh KRTAP10-2 (11738614_at) / RFU ARHGAP8 /// PRR5-ARHGAP8 (11727945_x_at) / Fold change /veh ARHGAP8 /// PRR5-ARHGAP8 (11727945_x_at) / RFU KRTAP5-7 /// NADSYN1 (11734609_at) / Fold change /veh KRTAP5-7 /// NADSYN1 (11734609_at) / RFU RASL12 (11751679_a_at) / Fold change /veh RASL12 (11751679_a_at) / RFU CDKN2B (11736163_a_at) / Fold change /veh CDKN2B (11736163_a_at) / RFU PRF1 (11729649_at) / Fold change /veh PRF1 (11729649_at) / RFU, ZNF638 /// ZNF638-IT1 / Fold change vs veh, ZNF638 /// ZNF638-IT1 / RFU, PANK3 / Fold change vs veh, PANK3 / RFU, SH3YL1 / Fold change vs veh, SH3YL1 / RFU, ZEB2 / Fold change vs veh, ZEB2 / RFU, NRIP1 / Fold change vs veh, NRIP1 / RFU, PTTG1IP / Fold change vs veh, PTTG1IP / RFU, CAPN2 / Fold change vs veh, CAPN2 / RFU, MED14 / Fold change vs veh, MED14 / RFU, SNORA58 / Fold change vs veh, SNORA58 / RFU, C1orf63 / Fold change vs veh, C1orf63 / RFU, LRRFIP1 / Fold change vs veh, LRRFIP1 / RFU, NDUFAF7 / Fold change vs veh, NDUFAF7 / RFU, SLC12A2 / Fold change vs veh, SLC12A2 / RFU, IBTK / Fold change vs veh, IBTK / RFU, ESF1 / Fold change vs veh, ESF1 / Fold change vs veh, TMEM50B / RFU, TAOK1 / Fold change vs veh, TAOK1 / RFU, ACBD3 / Fold change vs veh, ACBD3 / RFU, TMA16 / Fold change vs veh, TMA16 / RFU, RWDD3 / Fold change vs veh, RWDD3 / RFU, BCAT1 / Fold change vs veh, BCAT1 / RFU, EDEM3 / Fold change vs veh, EDEM3 / RFU, TMEM33 / Fold change vs veh, TMEM33 / RFU, WDR75 / Fold change vs veh, WDR75 / RFU, AHCTF1 / Fold change vs veh, AHCTF1 / RFU, TFRC / Fold change vs veh, TFRC / RFU, ZDHHC17 / Fold change vs veh, ZDHHC17 / RFU, NOM1 / Fold change vs veh, NOM1 / RFU, ARL8B / Fold change vs veh, ARL8B / RFU, ZBTB11 / Fold change vs veh, ZBTB11 / RFU, TAMM41 / Fold change vs veh, TAMM41 / RFU, KIAA1704 /// LOC100996395 / Fold change vs veh, KIAA1704 /// LOC100996395 / RFU, ING1 / Fold change vs veh, ING1 / RFU, TRMT61B / Fold change vs veh, TRMT61B / RFU, FUBP3 / Fold change vs veh, FUBP3 / RFU, TP53 / Fold change vs veh, TP53 / RFU, TNKS2 / Fold change vs veh, TNKS2 / RFU, ZFP14 / Fold change vs veh, ZFP14 / RFU, ACTR2 / Fold change vs veh, ACTR2 / RFU, PPP3R1 / Fold change vs veh, PPP3R1 / RFU, PIK3R1 / Fold change vs veh, PIK3R1 / RFU, HNRNPA1 / Fold change vs veh, HNRNPA1 / RFU, RNF170 / Fold change vs veh, RNF170 / RFU, ZNF28 / Fold change vs veh, ZNF28 / RFU, RNGTT / Fold change vs veh, RNGTT / RFU, OGT / Fold change vs veh, OGT / RFU, BRD1 / Fold change vs veh, BRD1 / RFU, MARS / Fold change vs veh, MARS / RFU, ZNF655 / Fold change vs veh, ZNF655 / RFU, FAHD1 / Fold change vs veh, FAHD1 / RFU, BDP1 / Fold change vs veh, BDP1 / RFU, LRRCC1 / Fold change vs veh, LRRCC1 / RFU, ARID1A / Fold change vs veh, ARID1A / RFU, ZNF146 / Fold change vs veh, ZNF146 / RFU, ZNF330 / Fold change vs veh, ZNF330 / RFU, GPN3 / Fold change vs veh, GPN3 / RFU, C9orf123 / Fold change vs veh, C9orf123 / RFU, N4BP2L2 / Fold change vs veh, N4BP2L2 / RFU, ARFIP1 / Fold change vs veh, ARFIP1 / RFU, FAM179B / Fold change vs veh, FAM179B / RFU, BCL10 / Fold change vs veh, BCL10 / RFU, UHRF1BP1L / Fold change vs veh, UHRF1BP1L / RFU, BET1 / Fold change vs veh, BET1 / RFU, CNOT2 / Fold change vs veh, CNOT2 / RFU, ZNF268 / Fold change vs veh, ZNF268 / Fold change vs veh, ZNF507 / RFU, DGCR2 / Fold change vs veh, DGCR2 / RFU, WDSUB1 / Fold change vs veh, WDSUB1 / Fold change vs veh, HSP90B1 /// MIR3652 / RFU, ADSS / Fold change vs veh, ADSS / RFU, GK / Fold change vs veh, GK / RFU, ZNF148 / Fold change vs veh, ZNF148 / RFU, TAF9 / Fold change vs veh, TAF9 / RFU, SLC1A5 / Fold change vs veh, SLC1A5 / RFU, SLMO2 / Fold change vs veh, SLMO2 / RFU, ABCC4 / Fold change vs veh, ABCC4 / RFU, LOC101060439 /// RAP1B / Fold change vs veh, LOC101060439 /// RAP1B / RFU, RFX7 / Fold change vs veh, RFX7 / RFU, GTPBP10 / Fold change vs veh, GTPBP10 / RFU, CNEP1R1 / Fold change vs veh, CNEP1R1 / RFU, BIVM-ERCC5 /// ERCC5 / Fold change vs veh, BIVM-ERCC5 /// ERCC5 / RFU, ILF3 / Fold change vs veh, ILF3 / RFU 11762660_at / Fold change /veh 11762660_at / RFU VCAN (11757783_s_at) / Fold change /veh VCAN (11757783_s_at) / RFU DDX43 (11728927_at) / Fold change /veh DDX43 (11728927_at) / RFU KRT8 (11758188_x_at) / Fold change /veh KRT8 (11758188_x_at) / RFU NKD1 (11759106_at) / Fold change /veh NKD1 (11759106_at) / RFU SRD5A1 (11742802_a_at) / Fold change /veh SRD5A1 (11742802_a_at) / RFU TPSAB1 /// TPSB2 (11721975_s_at) / Fold change /veh TPSAB1 /// TPSB2 (11721975_s_at) / RFU GSTM3 (11746129_a_at) / Fold change /veh GSTM3 (11746129_a_at) / RFU IL23R (11737362_x_at) / Fold change /veh IL23R (11737362_x_at) / RFU TMEM51 (11727254_a_at) / Fold change /veh TMEM51 (11727254_a_at) / RFU PIWIL2 (11732686_x_at) / Fold change /veh PIWIL2 (11732686_x_at) / RFU ORM1 (11744905_x_at) / Fold change /veh ORM1 (11744905_x_at) / RFU CCDC152 (11743942_at) / Fold change /veh CCDC152 (11743942_at) / RFU ECM1 (11717891_a_at) / Fold change /veh ECM1 (11717891_a_at) / RFU IL23R (11748794_a_at) / Fold change /veh IL23R (11748794_a_at) / RFU TNFAIP8L3 (11732012_x_at) / Fold change /veh TNFAIP8L3 (11732012_x_at) / RFU MBOAT4 (11741988_at) / Fold change /veh MBOAT4 (11741988_at) / RFU 11764193_at / Fold change /veh 11764193_at / RFU TMEM53 (11763286_at) / Fold change /veh TMEM53 (11763286_at) / RFU MAGEB2 (11727129_at) / Fold change /veh MAGEB2 (11727129_at) / RFU TMEM200A (11744735_a_at) / Fold change /veh TMEM200A (11744735_a_at) / RFU CCDC152 (11751479_a_at) / Fold change /veh CCDC152 (11751479_a_at) / RFU FAM211A (11726209_a_at) / Fold change /veh FAM211A (11726209_a_at) / RFU RGS16 (11746705_a_at) / Fold change /veh RGS16 (11746705_a_at) / RFU VCAN (11755009_s_at) / Fold change /veh VCAN (11755009_s_at) / RFU RHOB (11743442_s_at) / Fold change /veh RHOB (11743442_s_at) / RFU RGS16 (11720943_a_at) / Fold change /veh RGS16 (11720943_a_at) / RFU RGS16 (11720944_at) / Fold change /veh RGS16 (11720944_at) / RFU, VPS4B / Fold change vs veh, VPS4B / RFU, CREB1 / Fold change vs veh, CREB1 / RFU, DNAJC13 / Fold change vs veh, DNAJC13 / RFU, GNAQ / Fold change vs veh, GNAQ / RFU, CDK5R1 / Fold change vs veh, CDK5R1 / RFU, ZRANB3 / Fold change vs veh, ZRANB3 / RFU, CUL4A / Fold change vs veh, CUL4A / RFU, CCNY / Fold change vs veh, CCNY / RFU, UFL1 / Fold change vs veh, UFL1 / RFU, COG3 / Fold change vs veh, COG3 / RFU, DIAPH2 / Fold change vs veh, DIAPH2 / RFU, SKA2 / Fold change vs veh, SKA2 / RFU, AFF3 / Fold change vs veh, AFF3 / RFU, LMF1 / Fold change vs veh, LMF1 / RFU, IPO11 / Fold change vs veh, IPO11 / RFU, DFFB / Fold change vs veh, DFFB / RFU, FOXP1 / Fold change vs veh, FOXP1 / RFU, CARD8 / Fold change vs veh, CARD8 / RFU, STRN3 / Fold change vs veh, STRN3 / RFU, ADK / Fold change vs veh, ADK / RFU, RASSF2 / Fold change vs veh, RASSF2 / RFU, WIPF1 / Fold change vs veh, WIPF1 / RFU, LARP1B / Fold change vs veh, LARP1B / RFU, RASA1 / Fold change vs veh, RASA1 / RFU, RB1 / Fold change vs veh, RB1 / RFU, PPFIA1 / Fold change vs veh, PPFIA1 / RFU, MAT2A / Fold change vs veh, MAT2A / RFU, CCT5 / Fold change vs veh, CCT5 / RFU, WDR92 / Fold change vs veh, WDR92 / RFU, CUX1 / Fold change vs veh, CUX1 / RFU, TTC7A / Fold change vs veh, TTC7A / RFU, TMEM135 / Fold change vs veh, TMEM135 / RFU, DEPTOR / Fold change vs veh, DEPTOR / RFU, CPM / Fold change vs veh, CPM / RFU, DNAJB6 / Fold change vs veh, DNAJB6 / RFU, CACNA2D3 / Fold change vs veh, CACNA2D3 / RFU, DTX4 / Fold change vs veh, DTX4 / RFU, TFCP2 / Fold change vs veh, TFCP2 / RFU, GMCL1 /// GMCL1P1 / Fold change vs veh, GMCL1 /// GMCL1P1 / RFU, AEBP2 / Fold change vs veh, AEBP2 / RFU, SNHG1 /// SNORD22 /// SNORD25 /// SNORD26 /// SNORD27 /// SNORD28 /// SNORD29 /// SNORD31 / Fold change vs veh, SNHG1 /// SNORD22 /// SNORD25 /// SNORD26 /// SNORD27 /// SNORD28 /// SNORD29 /// SNORD31 / Fold change (Aza/veh), C12orf56 (ProbeSet 11735607_a_at) / Fold change (ACY-1035/veh), C12orf56 (ProbeSet 11735607_a_at) / Fold change (Aza/veh), FGFR1OP (ProbeSet 11751329_s_at) / Fold change (ACY-1035/veh), FGFR1OP (ProbeSet 11751329_s_at) / Fold change (Aza/veh), VPS36 (ProbeSet 11739960_a_at) / Fold change (ACY-1035/veh), VPS36 (ProbeSet 11739960_a_at) / RFU SYPL1 (11715823_x_at) / Fold change /veh SYPL1 (11715823_x_at) / RFU IGFBP7 (11715501_s_at) / Fold change /veh IGFBP7 (11715501_s_at) / RFU REEP3 (11722064_at) / Fold change /veh REEP3 (11722064_at) / RFU IGLL1 (11728026_x_at) / Fold change /veh IGLL1 (11728026_x_at): dose or concentration left out as unconfirmed
Details: MV-4-11 cells, 48 hours

SMILES: Nc1ccc(-c2cccs2)cc1NC(=O)c1ccc2c(c1)cc(C1CC1)n2CCN1CCOCC1 [ACY-1035]
- Fold change /veh LRRC4B (11730491_at): 1.07
